Data: ChEMBL document CHEMBL4261582, “Natural products as inhibitors of Leishmania major dihydroorotate dehydrogenase” (Eur J Med Chem, 2018)
Blank lines part the entries; values can stand above or below the molecule they belong to.

Key:
[1] = target: T1, Dihydroorotate dehydrogenase (fumarate) (Leishmania major, UniProt Q4QEW7); assay: Inhibition of recombinant oligo-histidine-tagged Leishmania major DHODH expressed in Escherichia coli BL21(DE3) cells using DHO as substrate measured after 60 secs; details: read-out: IC50
T1 sequence (Q4QEW7 whole entry): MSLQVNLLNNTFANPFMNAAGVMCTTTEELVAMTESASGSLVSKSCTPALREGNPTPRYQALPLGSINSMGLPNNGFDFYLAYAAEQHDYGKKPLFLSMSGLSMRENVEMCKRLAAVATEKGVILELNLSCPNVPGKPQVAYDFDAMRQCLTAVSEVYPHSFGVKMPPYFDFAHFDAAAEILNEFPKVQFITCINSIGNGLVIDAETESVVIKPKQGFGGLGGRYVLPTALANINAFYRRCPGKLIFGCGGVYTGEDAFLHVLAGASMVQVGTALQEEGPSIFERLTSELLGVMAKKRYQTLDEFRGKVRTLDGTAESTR

Leishmania donovani = assay: Antileishmanial activity against Leishmania donovani MHOM/ET/67/L82 amastigotes after 72 hrs by Alamar Blue assay; type: functional, organism-based; details: MHOM/ET/67/L82, 72 h
Trypanosoma cruzi [2] = assay: Antitrypanosomal activity against Trypanosoma cruzi Tulahuen C2C4 trypomastigotes infected in rat skeletal myoblasts L-6 cells after 96 hrs by CPRG/Nonidet reagent based spectrophotometric method; type: functional, organism-based; details: Tulahuen C2C4, L6, 96 h
[3] = system: Trypanosoma brucei rhodesiense; assay: Antitrypanosomal activity against Trypanosoma brucei rhodesiense STIB 900 trypomastigotes after 72 hrs by Alamar Blue assay; type: functional, organism-based; details: STIB 900, 72 h
Leishmania braziliensis = assay: Antileishmanial activity against Leishmania braziliensis H3227 MHOM/BR/94/H-3227 promastigotes after 72 hrs by MTT assay; type: functional, organism-based; details: H3227 MHOM/BR/94/H-3227, 72 h
Leishmania amazonensis [4] = assay: Antileishmanial activity against Leishmania amazonensis promastigotes; type: functional, organism-based
[5] = target: Dihydroorotate dehydrogenase (quinone), mitochondrial (Homo sapiens) (UniProt Q02127); assay: Inhibition of human DHODH at 100 uM
Chain of Dihydroorotate dehydrogenase (quinone), mitochondrial (Homo sapiens) (Q02127 whole entry): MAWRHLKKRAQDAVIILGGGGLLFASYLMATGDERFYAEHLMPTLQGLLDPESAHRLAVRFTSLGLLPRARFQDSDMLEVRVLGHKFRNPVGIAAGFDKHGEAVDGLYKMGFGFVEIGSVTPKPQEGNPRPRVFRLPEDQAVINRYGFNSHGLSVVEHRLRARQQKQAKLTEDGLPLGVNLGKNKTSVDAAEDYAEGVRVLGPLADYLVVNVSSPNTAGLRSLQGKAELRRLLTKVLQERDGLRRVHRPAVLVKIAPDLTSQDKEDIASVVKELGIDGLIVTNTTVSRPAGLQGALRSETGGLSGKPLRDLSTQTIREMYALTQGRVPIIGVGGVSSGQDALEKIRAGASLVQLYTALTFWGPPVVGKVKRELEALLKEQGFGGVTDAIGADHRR

[6] = target: T2, Dihydroorotate dehydrogenase (fumarate) (Leishmania major) (UniProt Q4QEW7); assay: Inhibition of recombinant oligo-histidine-tagged Leishmania major DHODH expressed in Escherichia coli BL21(DE3) cells at 100 uM using DHO as substrate measured after 60 secs
T2 sequence (whole entry): T1 sequence (Q4QEW7 whole entry)

[7] = target: T2, Dihydroorotate dehydrogenase (fumarate) (Leishmania major); assay: Binding affinity to Leishmania major DHODH assessed as change in melting temperature at 100 uM by differential scanning fluorimetry-based ThermoFMN assay
[8] = target: T2, Dihydroorotate dehydrogenase (fumarate) (Leishmania major); assay: Binding affinity to Leishmania major DHODH assessed as change in melting temperature at 500 uM by differential scanning fluorimetry-based ThermoFMN assay
[9] = target: T2, Dihydroorotate dehydrogenase (fumarate) (Leishmania major); assay: Binding affinity to Leishmania major DHODH assessed as change in melting temperature at 1000 uM by differential scanning fluorimetry-based ThermoFMN assay
[10] = target: T2, Dihydroorotate dehydrogenase (fumarate) (Leishmania major); assay: Binding affinity to Leishmania major DHODH assessed as change in melting temperature at 100 uM by SYPRO orange dye-based differential scanning fluorimetry
[11] = target: T2, Dihydroorotate dehydrogenase (fumarate) (Leishmania major); assay: Binding affinity to Leishmania major DHODH assessed as change in melting temperature at 500 uM by SYPRO orange dye-based differential scanning fluorimetry
[12] = target: T2, Dihydroorotate dehydrogenase (fumarate) (Leishmania major); assay: Binding affinity to Leishmania major DHODH assessed as change in melting temperature at 1000 uM by SYPRO orange dye-based differential scanning fluorimetry
Leishmania amazonensis [13] = assay: Antileishmanial activity against Leishmania amazonensis WHOM/BR/75/Josefa promastigotes after 72 hrs by Neubauer chamber method; type: functional, organism-based
Leishmania amazonensis [14] = assay: Antileishmanial activity against Leishmania amazonensis WHOM/BR/75/Josefa amastigotes after 72 hrs by Neubauer chamber method; type: functional, organism-based
Trypanosoma cruzi [15] = assay: Antitrypanosomal activity against Trypanosoma cruzi trypomastigotes; type: functional, organism-based

Compound: COc1ccc(/C=C/C(=O)NC2CCCN2C(=N)N)cc1O (configuration not stated)
IC50 [1]: 610 µM

Compound: O=c1c(O)c(-c2ccc(O)cc2)oc2cc(O)cc(O)c12 [KAEMPFEROL]
IC50 [1]: 389 µM
IC50 (Leishmania donovani): 10.1 µM
IC50 (Trypanosoma cruzi [2]): 83.5 µM
IC50 [3]: 32.2 µM

Compound: O=C(O)/C=C/c1ccccc1 [CINNAMIC ACID]
IC50 [1]: 392 µM
IC50 (Leishmania amazonensis [4]): 15.5 µM
IC50 (Leishmania donovani): 37.8 µM
IC50 (Trypanosoma cruzi [2]): 203 µM
IC50 [3]: 223 µM

Compound: COc1ccc(-c2oc3cc(O)c(OC)c(O)c3c(=O)c2OC)cc1 [SANTIN]
IC50 [1]: 262 µM

Compound: O=C(/C=C/c1ccc(O)c(O)c1)O[C@@H]1[C@H](O)C[C@@](O)(C(=O)O)C[C@H]1OC(=O)/C=C/c1ccc(O)c(O)c1
IC50 [1]: 642 µM

Compound: C=C1C[C@@]23CC[C@H]4[C@@](C)(CCC[C@@]4(C)C(=O)O)[C@@H]2CC[C@@H]1C3 [KAURENOIC ACID]
inhibition [5]: 28%
inhibition [6]: 40%
IC50 [1]: 31.5 µM
IC50 (Leishmania amazonensis [13]): 93.3 µM
IC50 (Leishmania amazonensis [14]): 11.7 µM

Compound: C=C(C)C(=O)O[C@H]1C[C@@]2(C)OC(=CC2=O)[C@@H](C)C[C@H]2OC(=O)C(=C)[C@H]12
IC50 [1]: 145 µM
ΔTm [7]: -0.27 °C
ΔTm [8]: -0.22 °C
ΔTm [9]: -0.27 °C
ΔTm [10]: -0.18 °C
ΔTm [11]: -0.27 °C
ΔTm [12]: -0.45 °C

Compound: C=C1C(=O)O[C@@H]2[C@H]3C(C)=CC(=O)C3=C(C)C[C@@H](OC(=O)[C@]3(C)O[C@@H]3C)[C@@H]12
IC50 [1]: 585 µM
ΔTm [7]: -0.26 °C
ΔTm [8]: -0.64 °C
ΔTm [9]: -0.85 °C
ΔTm [10]: -0.38 °C
ΔTm [11]: -0.75 °C
ΔTm [12]: -1.01 °C

Compound: C=C1C(=O)O[C@@H]2/C=C(\C)CC/C=C(/C=O)[C@@H](O)[C@@H](OC(=O)/C(C)=C\C)[C@@H]12
IC50 [1]: 644 µM
ΔTm [7]: -0.48 °C
ΔTm [8]: -1.07 °C
ΔTm [9]: -1.48 °C
ΔTm [10]: -0.09 °C
ΔTm [11]: -0.17 °C
ΔTm [12]: -0.07 °C

Compound: O=C(/C=C/c1ccc(O)c(O)c1)O[C@@H]1C[C@@](O)(C(=O)O)C[C@@H](O)[C@@H]1O
IC50 [1]: 1130 µM

Compound: C=C(C)C(=O)O[C@H]1C[C@@]2(C)OC(=CC2=O)/C(C)=C\[C@H]2OC(=O)C(=C)[C@H]12
IC50 [1]: 278 µM
IC50 (Trypanosoma cruzi [15]): 514 µM

Compound: O=C(/C=C/c1ccc(O)c(O)c1)O[C@H]1[C@H](O)C[C@](O)(C(=O)O)C[C@H]1OC(=O)/C=C/c1ccc(O)c(O)c1
inhibition [5]: 10%
inhibition [6]: 38%
IC50 [1]: 73.2 µM
IC50 (Trypanosoma cruzi [15]): 286 µM

Now from value to molecule, other results behind:

IC50 [1]: 168 µM
Compound: C=C(C)C(=O)O[C@@H]1C[C@@](C)(O)[C@@H]2C(=O)C=C(C)[C@@H]2[C@H]2OC(=O)C(=C)[C@@H]21

IC50 [1]: 426 µM
Compound: C=C1C(=O)O[C@@H]2/C=C(/C)C(=O)/C=C/[C@](C)(O)C[C@@H](OC(=O)C(C)C)[C@@H]12 [TAGITININ C]
IC50 (Leishmania braziliensis): 9.2 µM

inhibition [5]: 16%
inhibition [6]: 35%
IC50 [1]: 163 µM
Compound: O=c1c(O)c(-c2ccc(O[C@@H]3O[C@H](CO)[C@@H](O)[C@H](O)[C@H]3O)c(O)c2)oc2cc(O)cc(O)c12 [SPIRAEOSIDE]

ΔTm [7]: 1.29 °C
ΔTm [8]: 4.32 °C
ΔTm [9]: 6.12 °C
ΔTm [10]: 0.39 °C
ΔTm [11]: 1.43 °C
ΔTm [12]: 1.62 °C
Compound: O=C(O)c1cc(=O)[nH]c(=O)[nH]1

IC50 [1]: 1420 µM
Compound: C=C1[C@@H]2CC[C@H]3[C@]4(C)CCC[C@@](C)(C(=O)O)[C@H]4CC[C@]3(C2)[C@H]1OC(=O)/C=C/c1ccccc1

IC50 [1]: 481 µM
IC50 (Trypanosoma cruzi [2]): 73.3 µM
IC50 [3]: 61.1 µM
Compound: O=c1c(O)c(-c2ccccc2)oc2cc(O)cc(O)c12 [GALANGIN]
IC50 (Leishmania donovani): 5.55 µM

inhibition [5]: 41%
inhibition [6]: 67%
IC50 (Trypanosoma cruzi [2]): 94.3 µM
IC50 [3]: 50 µM
Compound: O=c1c(O)c(-c2cc(O)c(O)c(O)c2)oc2cc(O)cc(O)c12 [MYRICETIN]
IC50 (Leishmania donovani): 4.08 µM
